From patent publication US9855239B2, “Methods for the treatment and prevention of age-related retinal dysfunction” (University of Washington, priority 2008, dated 2018)
“Also recorded” adds a separate entry of the source.

What was measured:
[1] = system: Lrat−/− and Rpe65−/− knockout mice; conditions: cited from earlier work
retina = experiment: Retinal morphology (light and electron microscopy); type: in vivo, mouse; conditions: 10 and 14 months of age
Description: The thickness of each major layer in the retina was also similar between control and treated groups.
For light microscopy, mouse eyecups were fixed with 2.5% glutaraldehyde and 1.6% paraformaldehyde in 0.08 M 1,4-piperazinediethanesulfonate buffer (PIPES) (pH 7.4) containing 2% sucrose for ˜1 hr at room temperature followed by 23 hr at 4° C. Eyecups then were washed with 0.13 M sodium phosphate buffer (pH 7.3) and dehydrated through a CH3OH series and embedded in JB4 glycol metacrylate. Sections (6 μm) were stained by immersion in 5% Richardson's stain for 1.5-2 min at room temperature and destained in 0.13 M sodium phosphate (pH 7.3) until the retinal layers were visible by light microscopy (about 8-15 min). For transmission electron microscopy, mouse eyecups were analyzed as described previously (Maeda, A., et al. J Blot Chem 280, 18822-18832 (2005); Maeda, T., Lem, J., Palczewski, K. & Haeseleer, F. Investigative ophthalmology & visual science 46, 4320-4327 (2005)).

C57BL/6 female mice [2] = experiment: Single flash ERG analyses after long-term treatment; type: in vivo, mouse; conditions: 14 months of age, monthly gavage ~80 mg/kg (9-cis-R-Ac: N2 and N3), vs control C2; 80 mg/kg
From the text: To evaluate the effects of rod- and cone-mediated light responses after long-term 9-cis-R-Ac treatments, mice were examined by non-invasive ERG methods. The first set of analyses was done at 4 and 10 months of age. Under scotopic conditions, the amplitudes of a-waves decreased with age, especially at high flash intensities (C1 versus C0 group, FIG. 4A, left top panel), whereas the changes in b-waves were less evident (FIG. 4A, right top panel).
The second set of analyses was done at 14 months of age.
(§1) Six groups of mice were studied (FIG. 1B).
(§2) Two weeks after the last gavage with either, 9-cis-R-Ac, all-trans-R-Ac or vehicle, groups of 48 hr dark-adapted mice were analyzed for recovery of dark adaptation after light exposure, purified rhodopsin/opsin and retinoids in the eye and retinal morphology (FIG. 1C; Methods). Mice were exposed to light of intensity 500 cd·m^−2 that bleached ˜90% of rhodopsin, anesthetized and monitored by ERG for one hr to evaluate recovery of dark adaptation. Rhodopsin was purified and rhodopsin/opsin ratios was determined. Retinoid analyses were performed on dissected eyes removed at 0, 10, 30, and 60 min after exposure to the same amount of light. Mice used to evaluate retinal morphology were not exposed to photobleaching prior to analysis.
(§3) ERGs of anesthetized mice were recorded as previously reported.

C57BL/6 female mice [3] = experiment: Recovery of ERG response (dark adaptation) after bleach, long-term treatment; type: in vivo, mouse; conditions: 14 months of age, treated (9-cis-R-Ac: N2 and N3) vs C2; 500 cd·m^−2 for 3 min, 60 min dark adaptation
Description: Recovery of the ERG response (dark adaptation) following bleach was measured by monitoring the amplitude of a-waves after retinal exposure to intense constant illumination (500 cd·m^−2, ˜90% bleached rhodopsin) for 3 min. […] Retinoid kinetics in the eyes of each group were quantitatively evaluated during 60 min of dark adaptation after 3 min of bleaching at four subsequent time points of dark adaptation (0, 10, 30, and 60 min). […] Neither 9-cis-retinal nor 9-cis-retinyl esters were found in eyes from untreated groups (data not shown).
as §1, §2, §3

CC1=C(/C=C/C(C)=C\C=C\C(C)=C\C=O)C(C)(C)CCC1 [9-cis-retinal]
retinal morphology and rod function (single cell recordings, ERG) ([1]; mouse, in vivo, po): preserved retinal morphology and recovery of normal rod function

CC1=C(/C=C/C(C)=C/C=C/C(C)=C/C=O)C(C)(C)CCC1 [11-cis-retinal]
vision ([1]; intraperitoneal injection, Rpe65−/− mice): improves vision

CC(=O)OC/C=C(C)/C=C/C=C(C)/C=C/C1=C(C)CCCC1(C)C [all-trans-R-Ac, reference compound]
retinal abnormalities by light microscopy (retina): no major abnormalities
a- and b-wave amplitudes, scotopic and photopic single flash ERG (C57BL/6 female mice [2]): no significant difference; also recorded: no effect
recovery of ERG a-wave response (dark adaptation) after bleach (C57BL/6 female mice [3]): no significant difference
